Results from patent US8932581B2, “Calcium-mediated effects of coral and methods of use thereof” (Ben Gurion University of the Negev Research and Development …, priority 2007, dated 2015).

System: mesenchymal stem cells (MSCs)
Assay: Scanning Electron Micrographs of MSC density on coral biomatrices with and without calcium chelator
Assay type: cell-based, Mus-musculus
Details: incubation with the calcium chelator; FIGS. 2Aj, 2Al
Experimental: Two biomaterial derivatives were prepared, one from the hydrocoral M. dichotoma (designated MIL) and the other, for purposes of comparison, from scleractinian coral P. lutea—(designated POR). Colonies of M. dichotoma were collected from the shallow seawater zones adjacent to the Interuniversity Institute of Marine Science (IUD in Eilat, Israel, at depths of 6-8 meters. Each colony was cut into fragments and glued with epoxy resin into the tops of PVC tubes. After an adjustment period of 3 months, cloned fragments were transferred to a laboratory tank system. POR were prepared from cores drilled out from long-lived massive colonies.
Both types of skeleton were cut into blocks and bleached using a commercial hypochloride solution. After this preliminary cleaning process, samples were rinsed with distilled water and air-dried. […]
Images were acquired using an Axiovert-200 (Zeiss, Germany) inverted microscope equipped with X20 Plan-Neofluar (N.A. 0.50) and X40 LD-Acrhoplan objectives (N.A. 0.60) and a cooled CCD camera (SensiCam, PCO, USA) controlled by Metamorph (version 6.2, Universal Imaging, Downingtown, Pa.). […] Cells were counted manually, and the numbers were averaged and interpolated for 1 mm^2 of crystalline surface.

## O=C(O)CN(CCOCCOCCN(CC(=O)O)CC(=O)O)CC(=O)O [EGTA, O,O′-bis(2-aminoethyl)ethyleneglycol tetraacetic acid]
  local cell density on coral seeded with MSCs, effect of calcium chelator: further increased local cell density
